Results reported in the NIST ThermoML archive (doi:10.1016/j.jct.2017.03.016).

How the values were obtained:
[1] = wn = mass fraction of the nth substance listed; conditions: for surface tension liquid-gas: Maximal bubble pressure; for mass density: 100 kPa, Liquid, Vibrating tube method
[2] = refractive index (Na D-line) (dimensionless); wn = mass fraction of the nth substance listed; conditions: 100 kPa, Liquid, Standard Abbe refractometry

CCn1cc[n+](CCOC)c1.N#C[N-]C#N [1-ethyl-3-(2-methoxyethyl)imidazolium dicyanamide] + O
Conditions | mass density, [1] [kg/m3] | refractive index, [2] | surface tension liquid-gas, [1] [mN/m]
298.15 K, w2 = 0.00031 | – | – | 51.1
298.15 K, w2 = 0.00148 | 1113.35 | 1.5049 | –
298.15 K, w2 = 0.00175 | – | – | 51.3
298.15 K, w2 = 0.00277 | 1113.18 | 1.5045 | –
298.15 K, w2 = 0.00317 | – | – | 51.7
298.15 K, w2 = 0.00434 | 1112.96 | 1.5041 | –
298.15 K, w2 = 0.00461 | – | – | 52
298.15 K, w2 = 0.0055 | 1112.77 | 1.5037 | –
298.15 K, w2 = 0.00609 | – | – | 52.3
298.15 K, w2 = 0.00719 | 1112.46 | 1.5033 | –
303.15 K, w2 = 0.00031 | – | – | 50.8
303.15 K, w2 = 0.00148 | 1109.96 | 1.5036 | –
303.15 K, w2 = 0.00175 | – | – | 51.1
303.15 K, w2 = 0.00277 | 1109.78 | 1.5032 | –
303.15 K, w2 = 0.00317 | – | – | 51.4
303.15 K, w2 = 0.00434 | 1109.57 | 1.5028 | –
303.15 K, w2 = 0.00461 | – | – | 51.7
303.15 K, w2 = 0.0055 | 1109.37 | 1.5024 | –
303.15 K, w2 = 0.00609 | – | – | 52
303.15 K, w2 = 0.00719 | 1109.06 | 1.5019 | –
308.15 K, w2 = 0.00031 | – | – | 50.5
308.15 K, w2 = 0.00148 | 1106.58 | 1.5024 | –
308.15 K, w2 = 0.00175 | – | – | 50.8
308.15 K, w2 = 0.00277 | 1106.41 | 1.5019 | –
308.15 K, w2 = 0.00317 | – | – | 51.1
308.15 K, w2 = 0.00434 | 1106.19 | 1.5015 | –
308.15 K, w2 = 0.00461 | – | – | 51.4
308.15 K, w2 = 0.0055 | 1106 | 1.501 | –
308.15 K, w2 = 0.00609 | – | – | 51.7
308.15 K, w2 = 0.00719 | 1105.69 | 1.5006 | –
313.15 K, w2 = 0.00031 | – | – | 50.2
313.15 K, w2 = 0.00148 | 1103.23 | 1.5012 | –
313.15 K, w2 = 0.00175 | – | – | 50.5
313.15 K, w2 = 0.00277 | 1103.05 | 1.5007 | –
313.15 K, w2 = 0.00317 | – | – | 50.8
313.15 K, w2 = 0.00434 | 1102.83 | 1.5002 | –
313.15 K, w2 = 0.00461 | – | – | 51.1
313.15 K, w2 = 0.0055 | 1102.64 | 1.4996 | –
313.15 K, w2 = 0.00609 | – | – | 51.4
313.15 K, w2 = 0.00719 | 1102.33 | 1.4992 | –
318.15 K, w2 = 0.00031 | – | – | 49.9
318.15 K, w2 = 0.00148 | 1099.89 | 1.4996 | –
318.15 K, w2 = 0.00175 | – | – | 50.2
318.15 K, w2 = 0.00277 | 1099.72 | 1.4992 | –
318.15 K, w2 = 0.00317 | – | – | 50.5
318.15 K, w2 = 0.00434 | 1099.5 | 1.4987 | –
318.15 K, w2 = 0.00461 | – | – | 50.8
318.15 K, w2 = 0.0055 | 1099.3 | 1.4982 | –
318.15 K, w2 = 0.00609 | – | – | 51.1
318.15 K, w2 = 0.00719 | 1098.99 | 1.4979 | –
323.15 K, w2 = 0.00031 | – | – | 49.6
323.15 K, w2 = 0.00148 | 1096.58 | 1.4984 | –
323.15 K, w2 = 0.00175 | – | – | 49.9
323.15 K, w2 = 0.00277 | 1096.4 | 1.498 | –
323.15 K, w2 = 0.00317 | – | – | 50.2
323.15 K, w2 = 0.00434 | 1096.18 | 1.4975 | –
323.15 K, w2 = 0.00461 | – | – | 50.6
323.15 K, w2 = 0.0055 | 1095.98 | 1.497 | –
323.15 K, w2 = 0.00609 | – | – | 50.8
323.15 K, w2 = 0.00719 | 1095.66 | 1.4965 | –
328.15 K, w2 = 0.00031 | – | – | 49.4
328.15 K, w2 = 0.00148 | 1093.27 | 1.4971 | –
328.15 K, w2 = 0.00175 | – | – | 49.7
328.15 K, w2 = 0.00277 | 1093.1 | 1.4966 | –
328.15 K, w2 = 0.00317 | – | – | 50
328.15 K, w2 = 0.00434 | 1092.88 | 1.496 | –
328.15 K, w2 = 0.00461 | – | – | 50.4
328.15 K, w2 = 0.0055 | 1092.68 | 1.4955 | –
328.15 K, w2 = 0.00609 | – | – | 50.6
328.15 K, w2 = 0.00719 | 1092.36 | 1.4949 | –
333.15 K, w2 = 0.00031 | – | – | 49.1
333.15 K, w2 = 0.00148 | 1090 | 1.4954 | –
333.15 K, w2 = 0.00175 | – | – | 49.5
333.15 K, w2 = 0.00277 | 1089.82 | 1.495 | –
333.15 K, w2 = 0.00317 | – | – | 49.8
333.15 K, w2 = 0.00434 | 1089.59 | 1.4945 | –
333.15 K, w2 = 0.00461 | – | – | 50.1
333.15 K, w2 = 0.0055 | 1089.4 | 1.4939 | –
333.15 K, w2 = 0.00609 | – | – | 50.4
333.15 K, w2 = 0.00719 | 1089.08 | 1.4934 | –
338.15 K, w2 = 0.00031 | – | – | 48.8
338.15 K, w2 = 0.00148 | 1086.74 | 1.4941 | –
338.15 K, w2 = 0.00175 | – | – | 49.2
338.15 K, w2 = 0.00277 | 1086.56 | 1.4935 | –
338.15 K, w2 = 0.00317 | – | – | 49.5
338.15 K, w2 = 0.00434 | 1086.33 | 1.4929 | –
338.15 K, w2 = 0.00461 | – | – | 49.8
338.15 K, w2 = 0.0055 | 1086.13 | 1.4923 | –
338.15 K, w2 = 0.00609 | – | – | 50.1
338.15 K, w2 = 0.00719 | 1085.81 | 1.4919 | –
